Experimental data reported in US7195892B2, “Acylase gene” (Kaneka Corporation, priority 2002, dated 2007).

What was measured:
Format in all cases: biochemical
[1] = biological target: T1, Escherichia coli PenG amidase (Escherichia coli, UniProt P06875); test: Amoxycillin synthetic activity inhibition by PAA and PXA; details: for relative activity, amoxycillin synthesis amount with the substrate alone set at 100%: 30 mM KPB pH 6.0, 30° C., 1 hour; for inhibition of amoxycillin synthesis (in words): summary of Table 1
T1 construct: purchased Sigma
Description: (§1) To 200 μl of a substrate solution prepared by dissolving 6-APA and HPGOMe-HCl in 30 mM KPB (pH 6.0) at the concentration of 0.5%, 10 μl of the enzyme solution obtained in (Examination Example 1) was added. PAA was added to be 0.3% and PXA was added to be 0.35%, and the mixture was subjected to reaction while shaking at 30° C. for 1 hour. Then, 1N HCl was added in 1/20 amount of the substrate to terminate the reaction. The generated amoxycillin was detected using HPLC. The result showing relative activity for the respective enzymes with the amoxycillin synthesis amount reacted by the substrate alone being set at 100% is shown in Table 1.

[2] = system: Stenotrophomonas maltophilia KNK12A strain-derived β-lactam acylase; test: as above; details: for relative activity, amoxycillin synthesis amount with the substrate alone set at 100%: 30 mM KPB pH 6.0, 30° C., 1 hour; for inhibition of amoxycillin synthesis (in words): summary of Table 1
Description: as §1

[3] = Comparison of amoxycillin synthesis activity; details: 0.5% 6-APA and HPGOMe-HCl, pH 6.0, 30° C., 0-120 minutes; FIG. 3
Description: Amoxycillin synthesis activities of the Stenotrophomonas maltophilia KNK12A strain-derived β-lactam acylase and the known Escherichia coli PenG amidase (Sigma) were compared. As an enzyme solution, the fraction obtained in (Example 8) (enzyme concentration: about 3.2 ng/10 μl) was used for the Stenotrophomonas maltophilia KNK12A strain-derived β-lactam acylase, and 100-fold diluted solution (10.2 munit/10 μl, enzyme concentration: about 3.5 ng/10 μl) was used for Escherichia coli PenG amidase.
To 200 μl of a substrate solution prepared by dissolving 6-APA and HPGOMe-HCl in 30 mM KPB (pH 6.0) at the concentration of 0.5%, 10 μl of the enzyme solution was added and the mixture was subjected to reaction while shaking at 30° C. After the lapse of 0, 5, 10, 15, 30, 45, 60, 75, 90, 105 and 120 minutes from the start of the reaction, 1N HCl was added in 1/20 amount of the substrate solution to terminate the reaction. The generated amoxycillin was detected using HPLC.

[4] = Comparison of decomposition activity of HPGOMe; details: 0.5% HPGOMe-HCl, pH 6.0, 30° C., 1 hour; FIG. 5
Description: To 200 μl of a liquid prepared by dissolving HPGOMe-HCl in 30 mM KPB (pH 6.0) at the concentration of 0.5%, 10μ of the enzyme solution obtained in (Examination Example 1) was added, and the mixture was subjected to reaction while shaking at 30° C. for 1 hour. Then, 1N HCl was added in 1/20 amount of the substrate solution to terminate the reaction. The remained HPGOMe was detected using HPLC.

[5] = Decomposition activity of amoxycillin; details: 0.5% amoxycillin, pH 6.0, 30° C., 1 hour; FIG. 4
Description: (§2) To 200 μl of a solution prepared by dissolving amoxycillin in 30 mM KPB (pH 6.0) at the concentration of 0.5%, 10 μl of the enzyme solution obtained in (Examination Example 1) was added. The mixture was subjected to reaction for 1 hour while shaking at 30° C., and 1N HCl was added in 1/20 amount of the substrate solution to terminate the reaction.
as §2, with “a liquid” for “a solution”, “reaction” for “reaction for 1 hour”, “30° C. for 1 hour,” for “30° C.,”, “and then” for “and”, “reaction. The remained amoxycillin was detected using HPLC.” for “reaction.”

[6] = Capability comparison examination of a mutant acylase; details: compared with unmodified acylase
Description: A β-lactam acylase-producing strain pUCNTkmTn5-KNK-L/HB101 strain and 1 amino acid-substituted mutant β-lactam acylase-producing strain pUCNT-Tn5-MuKNK-L1/HB101 strain were inoculated in 10 ml of CM culture medium, and shaking culture was carried out at 37° C. overnight. Cells were recovered from 2 ml of the culture by centrifugation, and suspended in 30 mM KPB (pH 6.0). Then, 1 ml of a substrate (prepared by dissolving 0.5% HPGOMe-HCl and 0.5% 6-APA in 30 mM KPB and adjusted to pH 6.0) was mixed therewith, and the mixture was subjected to reaction at 30° C. After the lapse of 10, 20, 30, 60, 90 and 180 minutes from the start of the reaction, 1N HCl was added in 1/20 amount of the substrate solution to terminate the reaction. Then, the centrifuged supernatant was diluted to 25-fold with 30 mM KPB, and 10 μl thereof was analyzed by HPLC. The amoxycillin conversion efficiency comparison is shown in FIG. 6, and ester decomposition degree comparison of D-p-hydroxyphenylglycine methyl ester (HPGOMe) is shown in FIG. 7.

T1 sequence (P06875 290-846): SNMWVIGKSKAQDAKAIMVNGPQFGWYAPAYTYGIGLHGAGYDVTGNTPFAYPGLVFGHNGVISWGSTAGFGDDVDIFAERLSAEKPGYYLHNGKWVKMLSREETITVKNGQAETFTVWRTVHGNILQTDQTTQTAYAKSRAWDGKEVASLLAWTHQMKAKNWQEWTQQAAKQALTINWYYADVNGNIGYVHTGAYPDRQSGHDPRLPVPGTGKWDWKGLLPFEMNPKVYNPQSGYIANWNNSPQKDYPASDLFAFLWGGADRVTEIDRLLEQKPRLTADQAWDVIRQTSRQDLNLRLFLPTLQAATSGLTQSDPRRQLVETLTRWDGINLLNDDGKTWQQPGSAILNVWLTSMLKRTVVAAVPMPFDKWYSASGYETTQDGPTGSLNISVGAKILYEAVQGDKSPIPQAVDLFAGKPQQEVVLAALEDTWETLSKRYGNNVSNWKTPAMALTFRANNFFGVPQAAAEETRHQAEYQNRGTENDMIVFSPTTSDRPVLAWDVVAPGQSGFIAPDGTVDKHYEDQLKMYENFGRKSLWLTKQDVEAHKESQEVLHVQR
T1 sequence (P06875 27-235): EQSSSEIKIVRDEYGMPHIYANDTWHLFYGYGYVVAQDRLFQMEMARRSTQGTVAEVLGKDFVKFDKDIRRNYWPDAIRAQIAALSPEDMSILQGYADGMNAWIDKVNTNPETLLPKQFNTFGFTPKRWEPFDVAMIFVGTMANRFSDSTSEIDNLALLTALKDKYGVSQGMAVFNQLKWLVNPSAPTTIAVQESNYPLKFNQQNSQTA

## O=C(O)Cc1ccccc1 [PAA, Phenylacetic Acid]
[1]; Substrate + 0.3% PAA
  relative activity, amoxycillin synthesis amount with the substrate alone set at 100%: 0%
[1]
  inhibition of amoxycillin synthesis (in words): inhibited
[2]; Substrate + 0.3% PAA
  relative activity, amoxycillin synthesis amount with the substrate alone set at 100%: 107%
[2]
  inhibition of amoxycillin synthesis (in words): not inhibited at all, or even in the case there is inhibition, it is slight

## O=C(O)COc1ccccc1 [PXA, Phenoxyacetic Acid]
[1]; Substrate + 0.35% PXA
  relative activity, amoxycillin synthesis amount with the substrate alone set at 100%: 0%
[1]
  inhibition of amoxycillin synthesis (in words): inhibited
[2]; Substrate + 0.35% PXA
  relative activity, amoxycillin synthesis amount with the substrate alone set at 100%: 76%
[2]
  inhibition of amoxycillin synthesis (in words): not inhibited at all, or even in the case there is inhibition, it is slight

B1: Stenotrophomonas maltophilia KNK12A strain-derived β-lactam acylase: β-lactam acylase of Stenotrophomonas maltophilia KNK12A, amino acid sequence SEQ ID NO:2, about 70 kDa (protein, listed as Stenotrophomonas maltophilia)
chain: MHVRAVAVAIALSLSSTVLAADTPPMTPDISGKPFIAPDVGRDYDKRVVMVPMRDGTRLYTVIVVPKGAHNAPILLTRTPYDAAGRASRSDSPRMRDLLPQGDEVFVDGGYIRVFQDIRGKYGSEGDYVMTRPLRGPLNNTKVDHSTDAWDTIDWLVKHVPESNGKVGMLGSSYEGFTVVMALTDPHPALKVAAPQSPMVDGWMGDDWLNYGAFRQVNFNYFAMQTEKRGKGTPLPSLGYDDYSTFLRIGSAGDYARFTGVDQLTWWKKLVQHPAYDGFWQGQALDAVMAKTPLKVPTMWLQGLWDQEDMWGANHAYQAMEGRDTGNTHNYLVMGPWRHSQVNYTGNELGALKFEGDTALQFRRDVLKPFFDQYLVDGAPKADTPPVLIYNTGENHWDRLQGWPRSCDKGCTAASKPLYLRAGGKLAFQAPAAGEGDFEEYVSDPAKPVPFVPRPVRFGDRDMWTTWLVKDQRFVDGRPDVLTFITEPLAEPLRIGGAPVVHLQASTSGTDSDWVVKLIDVYPDQEASTPEMGGYELPVSLAIFRGRYRESFSDPKPLAANQVLPYRFDLPNANHVFQKGHRVMVQVQSSLFPLYDRNPQTYVPNIYLAKPGDYQKATQRVWHSAAQASYVDLPVY
[3]
  amoxycillin synthesis conversion rate: very high conversion rate as compared with Escherichia coli PenG amidase
[4]
  decomposition speed of HPGOMe: faster than that of Escherichia coli PenG amidase
[5]
  amoxycillin decomposition speed: slow

B2: mutant β-lactam acylase (protein, listed as Stenotrophomonas maltophilia)
chain: MHVRAVAVAIALSLSSTVLAADTPPMTPDISGKPFIAPDVGRDYDKRVVMVPMRDGTRLYTVIVVPKGAHNAPILLTRTPYDAAGRASRSDSPRMRDLLPQGDEVFVDGGYIRVFQDIRGKYGSEGDYVMTRPLRGPLNNTKVDHSTDAWDTIDWLVKHVPESNGKVGMLGSSYEGFTVVMALTDPHPALKVAAPQSPMVDGWVGDDWLNYGAFRQVNFNYFAMQTEKRGKGTPLPSLGYDDYSTFLRIGSAGDYARFTGVDQLTWWKKLVQHPAYDGFWQGQALDAVMAKTPLKVPTMWLQGLWDQEDMWGANHAYQAMEGRDTGNTHNYLVMGPWRHSQVNYTGNELGALKFEGDTALQFRRDVLKPFFDQYLVDGAPKADTPPVLIYNTGENHWDRLQGWPRSCDKGCTAASKPLYLRAGGKLAFQAPAAGEGDFEEYVSDPAKPVPFVPRPVRFGDRDMWTTWLVKDQRFVDGRPDVLTFITEPLAEPLRIGGAPVVHLQASTSGTDSDWVVKLIDVYPDQEASTPEMGGYELPVSLAIFRGRYRESFSDPKPLAANQVLPYRFDLPNANHVFQKGHRVMVQVQSSLFPLYDRNPQTYVPNIYLAKPGDYQKATQRVWHSAAQASYVDLPVY
[6]; FIG. 6
  acylase activity: enhanced
[6]; FIG. 7
  ester decomposition activity of the substrate HPGOMe: reduced
